ChEMBL document CHEMBL1150936, “Antioxidative bromoindole derivatives from the mid-intestinal gland of the muricid gastropod Drupella fragum” (J Nat Prod, 1998)

Test: Antioxidant activity assessed as peroxide value relative to control
Format: functional

| SMILES | Activity (milliequivalent/kg) |
| --- | --- |
| Oc1cc(Br)c(O)c2[nH]ccc12 | 0.106 |
| Cc1c(C)c2c(c(C)c1O)CC[C@@](C)(CCC[C@H](C)CCC[C@H](C)CCCC(C)C)O2 | 0.062 |
| Oc1c(Br)cc2[nH]ccc2c1O | 0.194 |
| Cc1cc(C(C)(C)C)c(O)c(C(C)(C)C)c1 | 0.031 |
| Oc1cc2cc[nH]c2cc1Br | 0.036 |
